Where “and” joins values, the source holds several entries; their conditions need not be identical. Identical values can stand only once.
What was measured:
A/WSN/1933 (H1N1) = experiment: microbe, parasite or virus in culture; assay type: cell-based, Influenza virus A/WSN/1933 (H1N1); conditions: Influenza A virus, read-out: EC50 (anti-influenza activity)
[1] = tested on: A/California/7/2009 (pandemic H1N1); experiment: microbe, parasite or virus in culture; assay type: cell-based, Influenza virus A/California/7/2009 (pandemic H1N1); conditions: Influenza A virus, H1N1, read-out: EC50 (anti-influenza activity)
[2] = tested on: A/Vietnam/1194/2004 RG14 (H5N1); experiment: microbe, parasite or virus in culture; assay type: cell-based, Influenza virus A/Vietnam/1194/2004 RG14 (H5N1); conditions: Influenza A virus, H5N1, read-out: EC50 (anti-influenza activity)
A/Udorn/307/1972 (H3N2) = experiment: microbe, parasite or virus in culture; assay type: cell-based, Influenza virus A/Udorn/307/1972 (H3N2); conditions: Influenza A virus, H3N2, read-out: EC50 (anti-influenza activity)
in vitro = conditions: human
[3] = in vivo; cited from earlier work
[4] = biological target: neuraminidase of A/WSN/1933 (H1N1) (Influenza A virus, UniProt P03470); experiment: biochemical; design: species or system Influenza virus A/WSN/1933 (H1N1)
neuraminidase of A/WSN/1933 (H1N1), sequence (P03470 whole entry, looked up): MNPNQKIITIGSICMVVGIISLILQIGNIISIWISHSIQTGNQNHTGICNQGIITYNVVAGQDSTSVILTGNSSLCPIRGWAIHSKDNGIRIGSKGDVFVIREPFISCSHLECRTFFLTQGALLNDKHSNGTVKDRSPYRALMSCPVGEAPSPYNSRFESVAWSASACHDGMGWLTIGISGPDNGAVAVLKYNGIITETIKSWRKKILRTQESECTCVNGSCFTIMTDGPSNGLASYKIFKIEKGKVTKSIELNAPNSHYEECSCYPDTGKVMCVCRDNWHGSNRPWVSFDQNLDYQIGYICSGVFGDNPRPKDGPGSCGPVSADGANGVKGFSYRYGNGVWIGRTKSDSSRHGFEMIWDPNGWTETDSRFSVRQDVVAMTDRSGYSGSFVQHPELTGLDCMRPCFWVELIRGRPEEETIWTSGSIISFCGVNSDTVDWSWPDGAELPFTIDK

[5] = biological target: neuraminidase of A/California/7/2009 (pandemic H1N1) (Influenza A virus, UniProt C3W6G3); experiment: biochemical; design: species or system Influenza virus A/California/7/2009 (pandemic H1N1)
[6] = biological target: neuraminidase of A/Udorn/307/1972 (H3N2) (Influenza A virus, UniProt P0DOF6); experiment: biochemical; design: species or system Influenza virus A/Udorn/307/1972 (H3N2)
neuraminidase of A/Udorn/307/1972 (H3N2), sequence (P0DOF6 whole entry, looked up): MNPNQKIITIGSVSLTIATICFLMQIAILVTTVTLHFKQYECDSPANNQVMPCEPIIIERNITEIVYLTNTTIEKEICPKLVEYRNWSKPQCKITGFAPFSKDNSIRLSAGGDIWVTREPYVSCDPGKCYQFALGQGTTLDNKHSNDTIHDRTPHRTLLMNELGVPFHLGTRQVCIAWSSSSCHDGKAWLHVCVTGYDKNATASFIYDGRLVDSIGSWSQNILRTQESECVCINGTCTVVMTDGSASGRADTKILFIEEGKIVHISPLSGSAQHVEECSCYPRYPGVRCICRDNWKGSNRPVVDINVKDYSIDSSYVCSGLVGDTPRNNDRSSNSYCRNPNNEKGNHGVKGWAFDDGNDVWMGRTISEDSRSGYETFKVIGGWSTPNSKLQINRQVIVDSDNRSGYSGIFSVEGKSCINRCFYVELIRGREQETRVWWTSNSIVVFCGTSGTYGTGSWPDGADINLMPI

[7] = tested on: wild type (274H) neuraminidase of A/Hanoi/30408/2005 (H5N1) on 293T cells; assay type: binding
[8] = tested on: mixed 293T cells expressing 274H and 274Y neuraminidase of A/Hanoi/30408/2005 (H5N1); assay type: binding
[9] = tested on: 274H influenza virus (WSN), immobilized; assay type: binding

Row | SMILES | EC50 (A/WSN/1933 (H1N1)) [nM] | EC50 [1] [nM] | EC50 [2] [nM] | EC50 (A/Udorn/307/1972 (H3N2)) [nM] | CC50 (in vitro) [nM] | Bioavailability [3] [%] | IC50 [4] [nM] | IC50 [5] [nM] | IC50 [6] [nM] | percentage of ZB labeled cells [7] [%] | percentage of ZB labeled cells [8] | residual ZB binding in OC competition [9] | melting point [°C]
1 | CC(=O)N[C@H]1[C@H]([C@H](O)[C@H](O)CO)OC(C(=O)O)=C[C@@H]1N=C(N)N [Zanamivir, reference compound] | 23.5 ± 8.5 | 267 | 16400 ± 2980 | 41 ± 6 | > 100000 | 2 | – | – | – | – | – | – | –
2 | CC(=O)N[C@H]1[C@H]([C@H](O)[C@H](O)CO)OC(P(=O)(O)O)=C[C@@H]1N [1a, (5-Acetamido-4-amino-6-(1,2,3-hydroxy)propyl-4,5,6-trihydropyran-2-yl) phosphonic acid] | 1.3 | 20.3 | 978 | 55 | > 30000 | – | 0.65 | 0.9 | 6.4 | – | – | – | –
3 | CCC(CC)O[C@@H]1C=C(C(=O)O)C[C@H](N)[C@H]1NC(C)=O [Oseltamivir acid, oseltamivir carboxylic acid, reference compound] | 12.2 ± 2.3 | 76 | 1250 ± 440 | 3 ± 1.8 | > 100000 | – | – | – | – | – | – | – | –
4 | CC(=O)N[C@H]1[C@H]([C@H](O)[C@H](O)CO)OC(P(=O)(O)O)=C[C@@H]1NC(=N)N [1b, (5-Acetamido-4-guanidino-6-(1,2,3-hydroxy)propyl-4,5,6-trihydropyran-2-yl) phosphonic acid] | 2.4 | 26.5 | 1700 ± 500 | 32 ± 23 | > 50000 | – | 1.2 | 0.8 | 5.2 | – | – | – | –
5 | CC(=O)N[C@H]1[C@H]([C@H](OC(=O)NCc2cn(CCCCCNC(=O)CCCCC3SC[C@@H]4NC(=O)N[C@H]34)nn2)[C@H](O)CO)OC(C(=O)O)=C[C@@H]1NC(=N)N (stereo partly shown) [ZB] | – | – | – | – | – | – | – | – | – | 83.95 | 84.4% and 84.62% and 86.07% and 83.58% | about 3% | 170 to 172

Reference: patent US9403855B2 (priority 2010, dated 2016)
